Results as given in patent US6737383B1, “Herbicidal oxadiazolidines” (priority 1999, dated 2004).

Assays:
[1] = system: bedstraw; assay: Test B pre/postemergence bedstraw; assay type: in vivo, Galium aparine
Method in brief: (§1)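 Test chemicals in a non-phytotoxic solvent mixture with surfactant were sprayed preemergence onto planted seeds and postemergence onto plants 2 to 18 cm tall (1- to 4-leaf stage). After twelve to sixteen days in a greenhouse, injury was visually rated against untreated controls from 0 (no effect) to 10 (complete control).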

[2] = system: blackgrass; assay: Test B pre/postemergence blackgrass; assay type: in vivo, Alopecurus myosuroides
Method in brief: as §1

[3] = system: surinam grass; assay: Test B pre/postemergence surinam grass; assay type: in vivo, Brachiaria decumbens
Method in brief: as §1

[4] = system: cocklebur; assay: Test B pre/postemergence cocklebur; assay type: in vivo, Xanthium strumarium
Method in brief: as §1

[5] = system: corn; assay: Test B pre/postemergence corn; assay type: in vivo, Zea mays
Method in brief: as §1

[6] = system: crabgrass; assay: Test B pre/postemergence crabgrass; assay type: in vivo, Digitaria sanguinalis
Method in brief: as §1

[7] = system: giant foxtail; assay: Test B pre/postemergence giant foxtail; assay type: in vivo, Setaria faberii
Method in brief: as §1

[8] = system: morningglory; assay: Test B pre/postemergence morningglory; assay type: in vivo, Ipomoea hederacea
Method in brief: as §1

[9] = system: pigweed; assay: Test B pre/postemergence pigweed; assay type: in vivo, Amaranthus retroflexus
Method in brief: as §1

[10] = system: rape; assay: Test B pre/postemergence rape; assay type: in vivo, Brassica napus
Method in brief: as §1

[11] = system: soybean; assay: Test B pre/postemergence soybean; assay type: in vivo, Glycine max
Method in brief: as §1

[12] = system: sugar beet; assay: Test B pre/postemergence sugar beet; assay type: in vivo, Beta vulgaris
Method in brief: as §1

[13] = system: velvetleaf; assay: Test B pre/postemergence velvetleaf; assay type: in vivo, Abutilon theophrasti
Method in brief: as §1

[14] = system: wheat; assay: Test B pre/postemergence wheat; assay type: in vivo, Triticum aestivum
Method in brief: as §1

[15] = system: wild oat; assay: Test B pre/postemergence wild oat; assay type: in vivo, Avena fatua
Method in brief: as §1

[16] = system: purple nutsedge; assay: Test B pre/postemergence purple nutsedge; assay type: in vivo, Cyperus rotundus
Method in brief: as §1

[17] = Postemergence, Rate 125 g/ha, scale 0 to 10, 0 is no effect, 10 is complete control
[18] = Postemergence, Rate 500 g/ha, scale 0 to 10, 0 is no effect, 10 is complete control
[19] = Preemergence, Rate 62 g/ha, scale of 0 to 10 where 0 is no effect and 10 is complete control
[20] = Preemergence, Rate 125 g/ha, scale 0 to 10, 0 is no effect, 10 is complete control
[21] = Preemergence, Rate 250 g/ha, scale 0 to 10, 0 is no effect, 10 is complete control
[22] = Preemergence, Rate 500 g/ha, scale 0 to 10, 0 is no effect, 10 is complete control
[23] = Postemergence, Rate 62 g/ha, scale of 0 to 10, 0 is no effect, 10 is complete control
[24] = Postemergence, Rate 250 g/ha, scale 0 to 10
[25] = Preemergence, Rate 500 g/ha, scale of 0 to 10 where 0 is no effect and 10 is complete control

For `CCOCn1c(=O)on(C(=O)N(c2ccc(F)cc2F)C(C)C)c1=O` [Compound 504], the “Bedstraw plant response rating” value [1, 17] was 8, the “Plant response rating, Bedstraw” value [1, 18] was 9 and the “Plant response rating, Bedstraw” value [1, 19] was 2. The “Bedstraw plant response rating” value [1, 20] was 5, the “Bedstraw plant response rating” value [1, 21] was 8 and the “Bedstraw plant response rating” value [1, 22] was 8. The “Blackgrass plant response rating” value [2, 23] was 6, the “Blackgrass plant response rating” value [2, 17] was 7 and the “Blackgrass plant response rating” value [2, 24] was 7. The “Plant response rating, Blackgrass” value [2, 18] was 8, the “Plant response rating, Blackgrass” value [2, 19] was 6 and the “Blackgrass plant response rating” value [2, 20] was 8. For the same molecule, the “Blackgrass plant response rating” value [2, 21] was 10, the “Blackgrass plant response rating” value [2, 25] was 10 and the “B. signalgrass plant response rating” value [3, 23] was 0. The “B. signalgrass plant response rating” value [3, 17] was 3, the “B. signalgrass plant response rating” value ([3]; Postemergence, Rate 250 g/ha, scale 0 to 10, 0 no effect, 10 complete control) was 8 and the “Plant response rating, B. signalgrass” value [3, 18] was 9. The “Plant response rating, B. signalgrass” value [3, 19] was 7, the “B. signalgrass plant response rating” value [3, 20] was 10 and the “B. signalgrass plant response rating” value [3, 21] was 10. For the same molecule, the “B. signalgrass plant response rating” value [3, 22] was 10, the “Cocklebur plant response rating” value [4, 23] was 2 and the “Cocklebur plant response rating” value [4, 17] was 3. For the same molecule, the “Cocklebur plant response rating” value [4, 24] was 6, the “Plant response rating, Cocklebur” value [4, 18] was 6 and the “Plant response rating, Cocklebur” value [4, 19] was 0. The “Cocklebur plant response rating” value [4, 20] was 0, the “Cocklebur plant response rating” value [4, 21] was 0 and the “Cocklebur plant response rating” value [4, 25] was 0. The “Corn plant response rating” value [5, 23] was 0, the “Corn plant response rating” value [5, 17] was 2 and the “Corn plant response rating” value [5, 24] was 2. The “Plant response rating, Corn” value [5, 18] was 6, the “Plant response rating, Corn” value [5, 19] was 0 and the “Corn plant response rating” value [5, 20] was 5. For the same molecule, the “Corn plant response rating” value [5, 25] was 6, the “Crabgrass plant response rating” value [6, 23] was 8 and the “Crabgrass plant response rating” value [6, 17] was 8. For the same molecule, the “Crabgrass plant response rating” value [6, 24] was 9, the “Plant response rating, Crabgrass” value [6, 18] was 10 and the “Plant response rating, Crabgrass” value [6, 19] was 6. The “Crabgrass plant response rating” value [6, 20] was 6, the “Crabgrass plant response rating” value [6, 25] was 10 and the “Giant foxtail plant response rating” value [7, 23] was 8. For the same molecule, the “Giant foxtail plant response rating” value [7, 17] was 9, the “Plant response rating, Giant foxtail” value [7, 18] was 9 and the “Plant response rating, Giant foxtail” value [7, 19] was 9. For the same molecule, the “Giant foxtail plant response rating” value [7, 20] was 9, the “Giant foxtail plant response rating” value [7, 25] was 10 and the “Morningglory plant response rating” value [8, 23] was 4. The “Morningglory plant response rating” value [8, 17] was 4, the “Plant response rating, Morningglory” value [8, 18] was 6 and the “Plant response rating, Morningglory” value [8, 19] was 0. For the same molecule, the “Morningglory plant response rating” value [8, 20] was 0, the “Morningglory plant response rating” value [8, 25] was 4 and the “Redroot pigweed plant response rating” value [9, 23] was 7. For the same molecule, the “Redroot pigweed plant response rating” value [9, 17] was 8, the “Plant response rating, Redroot pigweed” value [9, 18] was 9 and the “Plant response rating, Redroot pigweed” value [9, 19] was 10. The “Redroot pigweed plant response rating” value [9, 20] was 10, the “Redroot pigweed plant response rating” value [9, 25] was 10 and the “Rape plant response rating” value [10, 23] was 1. For the same molecule, the “Rape plant response rating” value [10, 17] was 4, the “Plant response rating, Rape” value [10, 18] was 8 and the “Plant response rating, Rape” value [10, 19] was 5. The “Rape plant response rating” value [10, 20] was 10, the “Rape plant response rating” value [10, 25] was 10 and the “Soybean plant response rating” value [11, 23] was 3. The “Soybean plant response rating” value [11, 17] was 6, the “Plant response rating, Soybean” value [11, 18] was 7 and the “Plant response rating, Soybean” value [11, 19] was 0. The “Soybean plant response rating” value [11, 20] was 0, the “Soybean plant response rating” value [11, 25] was 5 and the “Sugarbeets plant response rating” value [12, 23] was 5. The “Sugarbeets plant response rating” value [12, 17] was 7, the “Plant response rating, Sugarbeets” value [12, 18] was 9 and the “Plant response rating, Sugarbeets” value [12, 19] was 4. For the same molecule, the “Sugarbeets plant response rating” value [12, 20] was 6, the “Sugarbeets plant response rating” value [12, 25] was 9 and the “Velvetleaf plant response rating” value [13, 23] was 1. For the same molecule, the “Velvetleaf plant response rating” value [13, 17] was 4, the “Plant response rating, Velvetleaf” value [13, 18] was 7 and the “Plant response rating, Velvetleaf” value [13, 19] was 1. For the same molecule, the “Velvetleaf plant response rating” value [13, 20] was 5, the “Velvetleaf plant response rating” value [13, 25] was 10 and the “Wheat plant response rating” value [14, 23] was 0. For the same molecule, the “Wheat plant response rating” value [14, 17] was 3, the “Plant response rating, Wheat” value [14, 18] was 6 and the “Plant response rating, Wheat” value [14, 19] was 2. For the same molecule, the “Wheat plant response rating” value [14, 20] was 6, the “Wheat plant response rating” value [14, 25] was 8 and the “Wild oats plant response rating” value [15, 23] was 0. The “Wild oats plant response rating” value [15, 17] was 6, the “Plant response rating, Wild oats” value [15, 18] was 7 and the “Plant response rating, Wild oats” value [15, 19] was 6. For the same molecule, the “Wild oats plant response rating” value [15, 20] was 8, the “Wild oats plant response rating” value [15, 25] was 10 and the “Nutsedge plant response rating” value [16, 23] was 0. The “Nutsedge plant response rating” value [16, 17] was 0, the “Plant response rating, Nutsedge” value [16, 18] was 3 and the “Plant response rating, Nutsedge” value [16, 19] was 2. For the same molecule, the “Nutsedge plant response rating” value [16, 20] was 0 and the “Nutsedge plant response rating” value [16, 25] was 8.
